Measurements as given in patent US20220296583A1, “COMPOSITIONS AND METHODS FOR TREATMENT OF OVARIAN AND BREAST CANCER” (Board of Regents, The University of Texas System, priority 2021, published 2022).
Read-outs that look alike come from different tables or passages of the source.

What was measured:
SKOv3 xenograft [1] = experiment: SKOv3 subcutaneous xenograft, SIK2 inhibitor and olaparib; assay type: in vivo, mice; conditions: SKOv3 s.c.; oral, five times per week, 4 weeks
MDA-MB-231 xenograft = experiment: MDA-MB-231 mammary fat pad xenograft, Compound B and olaparib; assay type: in vivo, mice; conditions: 50 mg/kg, oral, 5 weeks
Protocol: Forty female nu/nu mice were injected with 0.8×10^6 MDA-MB-231 cells into their fourth mammary fat pads. […] Tumors were measured every week as noted above (SKOv3 xenograft models).

SKOv3 cells = conditions: RNA-seq
MEF2 promoter activity = experiment: MEF2 luciferase reporter assay; assay type: cell-based; conditions: ovarian and breast cancer cell lines; time- and dose-dependent
Protocol: (§1) To identify the mechanism(s) by which SIK2 inhibition decreases DNA DBS repair, it was tested whether SIK2 inhibitors decrease the phosphorylation of class IIa HDACs, which control its nuclear cytoplasmic shuttling and consequently its association with DNA. […] Next, it was investigated whether SIK2 inhibitors increase nuclear localization of HDAC5. SIK2 inhibition increased nuclear localization of HDAC5 judged by increasing nuclear florescence intensity (FIG. 7B and FIG. 8A) and the nuclear fraction of HDAC5 expression (FIG. 8B). […] Therefore, it was hypothesized that SIK2 inhibition may block MEF transcription factor activity. […] Next, it was examined whether SIK2 regulation of MEF2 activity was HDAC4/5-dependent, increasing its binding to MEF2D protein. […] These observations are consistent with the hypothesis that SIK2 inhibition increases nuclear localization of HDAC4/5, blocking MEF2 transcription (FIG. 8E).

HCC5032 = experiment: CellTiter-Glo cell viability dose response; assay type: cell-based; conditions: 96 h
Protocol: (§2) Luminescence was measured on a Synergy2 microplate reader (BioTek) after 10 min of shaking. Dose-response experiments were plotted and IC50 values were calculated using nonlinear curve fitting with normalized response and variable slope by GraphPad Prism 8. Drug interaction of the two-drug combination using a constant ratio were processed and a Combination Index (CI) was calculated using CalcuSyn 2.0 (BIOSOFT). CI<1 indicates synergism, CI=1 indicates additive effect and CI>1 indicates antagonism.

MDA-2774 = experiment: CellTiter-Glo cell viability dose response; assay type: cell-based; conditions: Homo sapiens, 96 h
Protocol: as §2

BT549 = experiment: CellTiter-Glo cell viability dose response; assay type: cell-based; conditions: Homo sapiens, BT-549, 96 h
Protocol: as §2

OAW28 = experiment: CellTiter-Glo cell viability dose response; assay type: cell-based; conditions: Homo sapiens, OAW-28, 96 h
Protocol: as §2

OC316 = experiment: CellTiter-Glo cell viability dose response; assay type: cell-based; conditions: Homo sapiens, 96 h
Protocol: as §2

IGROV1 = experiment: CellTiter-Glo cell viability dose response; assay type: cell-based; conditions: Homo sapiens, IGROV-1, 96 h
Protocol: as §2

MDA-MD-231 = experiment: CellTiter-Glo cell viability dose response; assay type: cell-based; conditions: Homo sapiens, 96 h
Protocol: as §2

OV90 = experiment: CellTiter-Glo cell viability dose response; assay type: cell-based; conditions: Homo sapiens, OV-90, 96 h
Protocol: as §2

SKOv3 = experiment: CellTiter-Glo cell viability dose response; assay type: cell-based; conditions: Homo sapiens, SK-OV-3, 96 h
Protocol: as §2

OVCAR8 = experiment: CellTiter-Glo cell viability dose response; assay type: cell-based; conditions: Homo sapiens, OVCAR-8, 96 h
Protocol: as §2

NOE72 = experiment: CellTiter-Glo cell viability dose response; assay type: cell-based; conditions: 96 h
Protocol: as §2

DOV13 = experiment: CellTiter-Glo cell viability dose response; assay type: cell-based; conditions: Homo sapiens, DOV13, 96 h
Protocol: as §2

HMEC16620 = experiment: CellTiter-Glo cell viability dose response; assay type: cell-based; conditions: Homo sapiens, 96 h
Protocol: as §2

OVCAR3 = experiment: CellTiter-Glo cell viability dose response; assay type: cell-based; conditions: Homo sapiens, OVCAR-3, 96 h
Protocol: as §2

[2] = tested on: SKOv3, OVCAR8, HCC5032, or MDA-MB-231 cells; experiment: DNA damage: γ-H2AX staining and comet assay with olaparib; assay type: cell-based; conditions: SKOv3, OVCAR8, HCC5032, MDA-MB-231
Protocol: Cells were trypsinized and resuspended at 2×10^5/mL in cold PBS without Ca^2+ and Mg^2+. Cells were mixed with pre-warmed comet agarose at 1:10 (v/v) ratio. 10 uL of cell agarose mixture was plated onto comet slides pre-coated with 75 uL of agarose and chilled at 4° C. for 15 min to set. Cells were lysed in 25 mL of Lysis buffer at 4° C. for 2 hrs and washed with alkaline solution (pH 10). Comet slides were electrophoresed in cold alkaline solution at 20V for 15 min. Slides were rinsed with water and dried in 70% ethanol for 5 min. Slides were then stained with Vista Green DNA dye and viewed using an Olympus epifluorescence microscope with a FITC filter. Images were captured using a 20× objective. […] Experiments were run in triplicate and Olive Tail Moment was measured using CaspLab1.2.3β2 software (CaspLab.com). Olive Tail Moment=Tail DNA %×Tail Length. 50-200 Cells were measured for each treatment and experiments were repeated twice independently to ensure reproducibility.
Cells on 22×22 mm coverslips were fixed in 4% formaldehyde in PBS (Thermo Fisher, J19943-K2) and permeabilized with 0.1% Triton X-100 (Sigma, X100) in PBS for 15 min. Cells were blocked with 5% BSA in PBS for 30 min and then stained with antibody overnight at 4° C., followed by secondary antibody and DAPI for 1 hr. […] After 24-hrs incubation, cells were fixed in 4% formaldehyde in PBS. Cells were stained as described above. […] DNA damage visualized by γ-H2AX staining was evaluated by counting nuclear γ-H2AX puncta in each cell. […] After 8 hrs incubation, cells were fixed in 4% formaldehyde in PBS. Cells were stained as described above. Images were captured using an Olympus IX71 microscope and nuclear γ-H2AX puncta in each cells were counted using with Olympus CellSens Dimension software. HDAC5 (CST20458) and γ-H2AX (CST2577) antibodies were purchased from Cell Signaling Technology. Experiments were repeated twice independently to ensure reproducibility and 50-200 cells were counted for each treatment.

SKOv3 xenograft [3] = experiment: SKOv3 subcutaneous xenograft, Compound B, carboplatin and paclitaxel; assay type: in vivo, mice; conditions: SKOv3 s.c.; 6 weeks; Compound B 40 mg/kg
Protocol: After treatment as indicated in (A) for three weeks, mice were weighed, and intraperitoneal nodules were excised and weighed. […] Mice were treated with single, double, or triple agents for 6 weeks. Tumor was measured once a week until the tumor burden in control group reached maximum allowance. The graphs indicate the mean±standard deviation. Statistical significance is indicated by *p<0.05, **p<0.01, and ***p<0.0001.
Six-week-old female athymic nu/nu mice were purchased from Envigo. Experiments were reviewed and all procedures were performed according to an animal protocol approved by the Institutional Animal Care and Use Committee of UT MD Anderson Cancer Center. […] Carboplatin was administrated i.p. once a week at a dose of 25 mg/kg. […] Carboplatin was treated at a dose of 30 mg/kg once a week for six weeks. […] At end of six weeks, the mice were sacrificed by CO2. The mice were dissected immediately after death and the tumors were collected and weighed.
OVCAR8 cells were injected intraperitoneally (ip) into nu/nu mice. Treatment started 7 days post injection. […] At the conclusion of the treatment, the mice were sacrificed, and the tumor was dissected and weighed (FIG. 23A). […] The tumor volume was measured at indicated time points (FIG. 23D).

[4] = tested on: SIK2-expressed SKOV3 cells; experiment: Cell viability assessment of SKOV3; assay type: cell-based
[5] = tested on: HDAC4 (Ser246)/HDAC5 (Ser256)/HDAC7 (Ser155); experiment: Western analysis of HDAC4/5/7 phosphorylation; assay type: cell-based; conditions: 4 μM, 24 hrs; nearly all the cell lines tested
Protocol: as §1
Cells were incubated with and without treatment for the intervals indicated and then cells were incubated in lysis buffer (50 mM Hepes, pH 7.0, 150 mM NaCl, 1.5 mM MgCl2, 1 mM EGTA, 10, 10% glycerol, 1% Triton X-100, 50 mM NaF, 1 mM Na3VO4 1 mM PMSF, 10 μg/mL leupeptin and10 μg/mL aprotinin) on ice for 30 min. […] The protein concentration was assessed using a bicinchoninic acid (BCA) protein assay (Thermo Scientific, 23228). […]

A2780-PAR = experiment: Cell viability, cisplatin-sensitive sub-line; assay type: cell-based; conditions: 96 h
Protocol: (§3) Cisplatin-resistant A2780-CP20 and cisplatin-sensitive A27801 PAR sub-lines were plated at a density of 2000/well in 96-well plates, then treated with different concentrations of carboplatin for 96 h as indicated. Cell viability was measured with a bioluminescence assay and the IC50 was calculated. […] (C, D).
(§4) Cells were seeded in 6 replicates in black-walled and clear-bottomed 96-well plates and incubated overnight. […] The CellTiter-Glo luminescent cell viability assay (Promega) was used to evaluate the effect of treatment on cancer growth. This experiment was performed several times to optimize the concentration. […] GraphPad Prism 8 was used to generate growth curves and calculated IC50. CalcuSyn was used to evaluate additive or synergistic interactions, a combination Index (CI value).
(§5) Platinum resistance is commonly seen in ovarian cancer patients with recurrent disease. There is currently no standard chemotherapy for platinum-resistant recurrence. Targeting DNA damage and repair is an attractive therapeutic approach in platinum-resistant ovarian cancer.

A2780-CP20 = experiment: Cell viability, cisplatin-resistant sub-line; assay type: cell-based; conditions: 96 h
Protocol: as §3, §4, §5

Q: For O=C(c1cc(Cc2n[nH]c(=O)c3ccccc23)ccc1F)N1CCN(C(=O)C2CC2)CC1 [Olaparib, olaparib], which tumor growth (SKOv3 xenograft [1]) is on record?
A: significantly inhibited tumor growth

Q: What about the “tumor burden / tumor volume” value (MDA-MB-231 xenograft) of the same molecule?
A: remained unchanged

Q: And the “numbers of transcripts up or down-regulated by ≥2-fold” value (SKOv3 cells)?
A: 3

Q: What about the MEF2 promoter activity (MEF2 promoter activity) of the same molecule?
A: did not

Q: And the IC50 (HCC5032)?
A: 14.5 µM

Q: What about the IC50 (MDA-2774) of the same molecule?
A: 6.29 µM

Q: And the IC50 (BT549)?
A: 13.7 µM

Q: What about the IC50 (OAW28) of the same molecule?
A: 3.66 µM

Q: And the IC50 (OC316)?
A: 4.91 µM

Q: And the IC50 (IGROV1)?
A: 2.83 µM

Q: What about the IC50 (MDA-MD-231) of the same molecule?
A: 4.47 µM

Q: What about the IC50 (OV90) of the same molecule?
A: 8.36 µM

Q: And the IC50 (SKOv3)?
A: 55.5 µM

Q: And the IC50 (OVCAR8)?
A: 6.4 µM

Q: What about the IC50 (NOE72) of the same molecule?
A: 6.38 µM

Q: And the IC50 (DOV13)?
A: 32.2 µM

Q: And the IC50 (HMEC16620)?
A: 1.2 µM

Q: And the IC50 (OVCAR3)?
A: 3.79 µM

Q: And the “levels of γ-H2AX and tailed DNA” value [2]?
A: modestly increased

Q: For CC(=O)O[C@H]1C(=O)[C@@]2(C)[C@H]([C@H](OC(=O)c3ccccc3)[C@]3(O)C[C@H](OC(=O)[C@H](O)[C@@H](NC(=O)c4ccccc4)c4ccccc4)C(C)=C1C3(C)C)[C@]1(OC(C)=O)CO[C@@H]1C[C@@H]2O [Paclitaxel, paclitaxel], which “Test/Control (%) at drug Concentration [μM]” value (“Test/Control (%)” for short) (MAXF Hs 578T; Table 14, 1.0E+00 μM) is on record?
A: 38%

Q: And the “Test/Control (%)” value (MAXF Hs 578T; Table 14, 1.0E−01 μM)?
A: 44%

Q: And the “Test/Control (%)” value (MAXF Hs 578T; Table 14, 1.0E−02 μM)?
A: 89%

Q: What about the “Test/Control (%)” value (MAXF Hs 578T; Table 14, 3.2E−01 μM) of the same molecule?
A: 42%

Q: What about the “Test/Control (%)” value (MAXF Hs 578T; Table 14, 3.2E−02 μM) of the same molecule?
A: 52%

Q: And the “tumor growth (tumor volume)” value (SKOv3 xenograft [3])?
A: significantly inhibited tumor growth

Q: And the IC50 ([4]; Homo sapiens, SK-OV-3, SK-OV-3, Table 7, paclitaxel combinations)?
A: 0.127 µM

Q: What about the IC50 ([4]; Homo sapiens, SK-OV-3, SKOV3, Table 5, FIG. 25) of the same molecule?
A: 0.039 µM

Q: And the IC50 ([4]; Homo sapiens, SK-OV-3, SKOV3, Table 6, FIG. 26)?
A: 0.127 µM

Q: And the “Test/Control (%)” value (MAXF MDA-MB-231; Table 14, 1.0E+00 μM)?
A: 10%

Q: What about the “Test/Control (%)” value (MAXF MDA-MB-231; Table 14, 1.0E−01 μM) of the same molecule?
A: 17%

Q: And the “Test/Control (%)” value (MAXF MDA-MB-231; Table 14, 1.0E−02 μM)?
A: 45%

Q: And the “Test/Control (%)” value (MAXF MDA-MB-231; Table 14, 1.0E−03 μM)?
A: 110%

Q: What about the “Test/Control (%)” value (MAXF MDA-MB-231; Table 14, 3.2E−01 μM) of the same molecule?
A: 14%

Q: And the “Test/Control (%)” value (MAXF MDA-MB-231; Table 14, 3.2E−02 μM)?
A: 24%

Q: What does the source list for COc1c(F)cc(F)cc1-c1c[nH]c2ncc(-c3cnn(C4CCNCC4)c3)cc12 [Compound A, 3-(3,5-difluoro-2-methoxyphenyl)-5-(1-(piperidin-4-yl)-1H-pyrazol-4-yl)-1H-pyrrolo[2,3-b]pyridine]?
A: IC50 (HCC5032): 2.24 µM; IC50 (MDA-2774): 1.08 µM; IC50 (BT549): 2.02 µM; IC50 (OAW28): 1.71 µM; IC50 (OC316): 1.26 µM; IC50 (IGROV1): 1.08 µM; IC50 (MDA-MD-231): 2.37 µM; IC50 (OV90): 3.87 µM; IC50 (SKOv3): 1.23 µM; IC50 (OVCAR8): 1.4 µM; IC50 (NOE72): 5.75 µM; IC50 (DOV13): 2.81 µM; IC50 (HMEC16620): 3.6 µM; IC50 (OVCAR3): 2.83 µM; levels of γ-H2AX and tailed DNA [2]: modestly increased; phosphorylation of HDAC4/HDAC5/HDAC7 [5]: significantly decreased

Q: Which results are given for N.N.O=C([O-])C1(C(=O)[O-])CCC1.[Pt+2] [carboplatin]?
A: tumor growth (tumor volume) (SKOv3 xenograft [3]): significantly inhibited tumor growth; IC50 (A2780-PAR): 1.1 µM; IC50 (A2780-CP20): 34.9 µM

Q: Which IC50 ([4]; SK-OV-3, Table 9, cisplatin combinations) does the source give for N.N.[Cl][Pt][Cl] [Cisplatin, cisplatin] here?
A: 16.8 µM

Q: What about the IC50 ([4]; SKOV3, Table 6, FIG. 26, top locked at 100) of the same molecule?
A: 17 µM
